Biological target: CCR2 (Homo sapiens (Human), UniProt P41597)
Experiment: MCP-1 Receptor Binding Assay in THP-1 Cells;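 also: THP-1 is a human monocytic cell line, and nonspecific binding was defined with 1 µM unlabeled MCP-1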
Details: 0.5 nM 125I labeled MCP-1, 2 hours at 30° C., read-out: Inhibition of MCP-1 Binding IC50 MCP1B

Chain of CCR2 (P41597 whole entry): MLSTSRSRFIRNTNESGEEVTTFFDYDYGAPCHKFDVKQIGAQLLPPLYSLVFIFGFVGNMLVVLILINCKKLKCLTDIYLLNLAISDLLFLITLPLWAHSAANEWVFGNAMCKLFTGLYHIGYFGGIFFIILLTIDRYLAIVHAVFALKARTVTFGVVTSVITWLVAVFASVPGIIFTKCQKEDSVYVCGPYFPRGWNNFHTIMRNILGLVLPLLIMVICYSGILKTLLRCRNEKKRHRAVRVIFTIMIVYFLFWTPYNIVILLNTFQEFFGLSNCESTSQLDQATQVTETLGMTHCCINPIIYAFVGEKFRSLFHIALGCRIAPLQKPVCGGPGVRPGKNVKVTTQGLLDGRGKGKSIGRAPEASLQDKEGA

Row | Structure (SMILES) | IC50
1 | CCC(NC(=O)C(F)(F)F)[C@H]1CC[C@@H](N2CC(NC(=O)CNc3ncnc4ccc(C(F)(F)F)cc34)C2)CC1 (stereo partly drawn) [Example 135, 2,2,2-trifluoro-N—((S)-1-((1s,4R)-4-(3-(2-((6-(trifluoromethyl)quinazolin-4-yl)amino)acetamido)azetidin-1-yl)cyclohexyl)propyl)acetamide] | 2980 nM
2 | CCC([C@H]1CC[C@@H](N2CC(NC(=O)CNc3ncnc4ccc(C(F)(F)F)cc34)C2)CC1)N(C)C (stereo partly drawn) [Example 137, N-(1-((1S,4s)-4-((R)-1-(dimethylamino)propyl)cyclohexyl)azetidin-3-yl)-2-(6-(trifluoromethyl)quinazolin-4-ylamino)acetamide] | 5040 nM
3 | CCC(NC(C)=O)[C@H]1CC[C@@H](N2CC(NC(=O)CNc3ncnc4ccc(C(F)(F)F)cc34)C2)CC1 (stereo partly drawn) [Example 138, N-(1-((1R,4s)-4-((S)-1-acetamidopropyl)cyclohexyl)azetidin-3-yl)-2-((6-(trifluoromethyl)quinazolin-4-yl)amino)acetamide] | 1900 nM
4 | CCC(NS(C)(=O)=O)[C@H]1CC[C@@H](N2CC(NC(=O)CNc3ncnc4ccc(C(F)(F)F)cc34)C2)CC1 (stereo partly drawn) [Example 139, N-(1-((1R,4s)-4-((S)-1-(methylsulfonamido)propyl)cyclohexyl)azetidin-3-yl)-2-((6-(trifluoromethyl)quinazolin-4-yl)amino)acetamide] | 1450 nM
5 | CCC(NS(=O)(=O)C(F)(F)F)[C@H]1CC[C@@H](N2CC(NC(=O)CNc3ncnc4ccc(C(F)(F)F)cc34)C2)CC1 (stereo partly drawn) [Example 140, 2-((6-(trifluoromethyl)quinazolin-4-yl)amino)-N-(1-((1R,4s)-4-((S)-1-(trifluoromethylsulfonamido)propyl)cyclohexyl)azetidin-3-yl)acetamide] | 3000 nM
6 | CCC(NC(=O)N(C)C)[C@H]1CC[C@@H](N2CC(NC(=O)CNc3ncnc4ccc(C(F)(F)F)cc34)C2)CC1 (stereo partly drawn) [Example 143, N-(1-((1R,4s)-4-((S)-1-(3,3-dimethylureido)propyl)cyclohexyl)azetidin-3-yl)-2-((6-(trifluoromethyl)quinazolin-4-yl)amino)acetamide] | 13800 nM

Stronger by IC50, values ahead:

Row | IC50 | Structure (SMILES)
7 | 640 nM | CCC(NC(=O)OC)[C@H]1CC[C@@H](N2CC(NC(=O)CNc3ncnc4ccc(C(F)(F)F)cc34)C2)CC1 (stereo partly drawn) [Example 144, methyl ((S)-1-((1s,4R)-4-(3-(2-((6-(trifluoromethyl)quinazolin-4-yl)amino)acetamido)azetidin-1-yl)cyclohexyl)propyl)carbamate]
8 | 250 nM | CCC(NC(N)=O)[C@H]1CC[C@@H](N2CC(NC(=O)CNc3ncnc4ccc(C(F)(F)F)cc34)C2)CC1 (stereo partly drawn) [Example 141, 2((6-(trifluoromethyl)quinazolin-4-yl)amino)-N-(1-((1R,4s)-4-((S)-1-ureidopropyl)cyclohexyl)azetidin-3-yl)acetamide]
9 | 200 nM | O=C(CNc1ncnc2ccc(C(F)(F)F)cc12)NC1CN([C@H]2CC[C@@H](N3CCSCC3)CC2)C1 [Example 133, N-(1-((1s,4s)-4-thiomorpholinocyclohexyl)azetidin-3-yl)-2-((6-(trifluoromethyl)quinazolin-4-yl)amino)acetamide]
10 | 72 nM | O=C(CNc1ncnc2ccc(C(F)(F)F)cc12)NC1CN([C@H]2CC[C@@H](N3CCS(=O)(=O)CC3)CC2)C1 [Example 134, N-(1-((1s,4s)-4-(1,1-dioxidothiomorpholino)cyclohexyl)azetidin-3-yl)-2-((6-(trifluoromethyl)quinazolin-4-yl)amino)acetamide]
11 | 40 nM | CCC(N)[C@H]1CC[C@@H](N2CC(NC(=O)CNc3ncnc4ccc(C(F)(F)F)cc34)C2)CC1 (stereo partly drawn) [Example 136, N-(1-((1R,4s)-4-((S)-1-aminopropyl)cyclohexyl)azetidin-3-yl)-2-((6-(trifluoromethyl)quinazolin-4-yl)amino)acetamide]
12 | 9.2 nM | O=C(CNc1cnnc2ccc(C(F)(F)F)cc12)NC1CN([C@H]2CC[C@@](O)(c3cncs3)CC2)C1 [Example 147, N-(1-((1r,4r)-4-hydroxy-4-(thiazol-5-yl)cyclohexyl)azetidin-3-yl)-2-((6-(trifluoromethyl)cinnolin-4-yl)amino)acetamide]
